The subject of this experiment is patient with Prinzmetal's angina. Put plainly: Prinzmetal's angina chest pain and blood pressure. The class given is in vivo, human. The following applies: 300 mg/kg per day. How it is done: Another effect of the treatment of this invention was reduction in chest pain. A patient with an autoimmune disease was experiencing severe chest pains or Prinzmetal's angina—a coronary artery spasm and associated cardiac ischemia. After taking high doses of anti-herpes drugs, but no drugs specifically for the heart, the patient reported a marked reduction in the symptoms of Prinzmetal's angina, specifically, 95% reduction in pain at 300 mg/kg of famciclovir per day.

Structures are written as SMILES.

This note sets out measurements from patent US20110105434A1, “2-AMINO PURINE DERIVATIVES AND THEIR USE AS ANTI-HERPETIC AGENTS” (priority 2007, published 2011).

As to `CC(=O)OCC(CCn1cnc2cnc(N)nc21)COC(C)=O` [famciclovir, 2-amino-9-(4-acetoxy-3-acetoxymethylbut-1-yl)purine], the “reduction in pain of Prinzmetal's angina” value worked out at 95%. Besides, the elevated blood pressure result (blood pressure lowering medication reduced to a minimum) was “no hypertension”.
